Measurements from US20250320193A1, “OXOISOINDOLINYL SUBSTITUTED PIPERIDINEDIONE DERIVATIVE AND USE THEREOF” (GLUETACS THERAPEUTICS (SHANGHAI) CO., LTD., priority 2022, published 2025).

Experiments:
[1] = system: CCRF-CEM (human acute lymphoblastic leukemia T-cells); assay: Tumor cell proliferation inhibition, CCK-8; assay type: cell-based; conditions: CCRF-CEM cells, CCK-8, read-out: inhibitory activity (IC50, nM) CCRF-CEM
Description: (§1) The tumor cells used herein were cultured in a cell culture medium listed in table 2 at 37° C. in an incubator with 5% CO2. Prior to experimentation, all cells used were correctly identified by STR profiling, and tested negative for mycoplasma through routine screenings.
(§2) IC50 values of the compounds of the present disclosure (including the compounds in Table 1 and the Examples 1-305 compounds) were measured using the Meilun Cell Counting Kit-8 kit from Dalian Meilun Biotech Co., Ltd. Assay details are as follows: tumor cells were seeded in a 96-well plate at a density listed in Table 5. After 24 h, 100 μL of the inoculated cells were treated with 0.5 μL of the compounds of the present disclosure (including the compounds in Table 1 and the Examples 1-305 compounds) at 10 different successively decreasing concentrations (starting at the highest concentration of 10 μM; 5-fold serial dilutions). After the cells were treated with the compounds of the present disclosure for a period of time, the cell viability detection reagent was added to the culture medium for cell viability assessment according to the instructions provided with the CCK-8 kit. […] The growth inhibition of the compounds of the present disclosure on cells was plotted by Prism Graphpad software, and the IC50 values of the compounds of the present disclosure were calculated therefrom.

[2] = target: human Cereblon WT GST-tagged protein (Homo sapiens (Human), UniProt Q96SW2); assay: CRBN-binding affinity, HTRF (CEREBLON BINDING kit, CISBIO); conditions: HTRF inhibitory activity
Sequence of human Cereblon WT GST-tagged protein (Q96SW2 whole entry): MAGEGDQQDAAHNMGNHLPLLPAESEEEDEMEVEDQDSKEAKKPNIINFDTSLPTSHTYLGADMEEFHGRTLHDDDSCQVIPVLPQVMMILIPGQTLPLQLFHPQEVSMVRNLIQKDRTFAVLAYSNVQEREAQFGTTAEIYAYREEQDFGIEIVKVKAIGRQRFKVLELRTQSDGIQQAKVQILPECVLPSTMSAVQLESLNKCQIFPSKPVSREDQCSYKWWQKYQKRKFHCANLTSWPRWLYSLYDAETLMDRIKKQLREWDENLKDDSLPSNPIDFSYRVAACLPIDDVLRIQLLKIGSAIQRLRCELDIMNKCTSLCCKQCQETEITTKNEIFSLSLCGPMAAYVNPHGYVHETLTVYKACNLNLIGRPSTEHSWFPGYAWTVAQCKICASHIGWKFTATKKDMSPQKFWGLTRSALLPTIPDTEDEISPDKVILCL
Summary of the method: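 HTRF competition format: test compound displaces Thalidomide-Red from GST-tagged human Cereblon WT, detected with a Eu-labelled anti-GST antibody. Percent CRBN binding inhibition was derived from the 620 nm signal, normalized to solvent-control and protein-free blank wells.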

IKZF3 = IKZF3 (Homo sapiens (Human), UniProt Q96SW2+Q9UKT9); assay: Western blot, substrate protein expression in hPBMC: IKZF3; assay type: cell-based; conditions: hPBMC, compound 500 nM, 24 hours, Western blot
Sequence of IKZF3 (Q9UKT9 whole entry): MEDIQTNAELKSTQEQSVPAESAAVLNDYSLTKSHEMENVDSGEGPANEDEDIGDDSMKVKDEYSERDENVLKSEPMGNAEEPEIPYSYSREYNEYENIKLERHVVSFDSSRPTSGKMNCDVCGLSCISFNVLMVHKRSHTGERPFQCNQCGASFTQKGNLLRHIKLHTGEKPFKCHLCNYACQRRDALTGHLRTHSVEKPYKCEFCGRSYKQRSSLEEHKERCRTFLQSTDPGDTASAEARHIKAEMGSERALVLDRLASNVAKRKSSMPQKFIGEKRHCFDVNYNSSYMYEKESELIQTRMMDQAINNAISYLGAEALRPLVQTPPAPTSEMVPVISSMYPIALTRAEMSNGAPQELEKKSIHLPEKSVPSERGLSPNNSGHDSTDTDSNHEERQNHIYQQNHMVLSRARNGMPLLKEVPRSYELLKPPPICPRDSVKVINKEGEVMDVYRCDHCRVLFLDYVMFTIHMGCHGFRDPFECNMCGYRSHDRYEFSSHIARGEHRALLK
Sequence of IKZF3 (Q96SW2 whole entry): as the sequence (Q96SW2 whole entry) above
Sequence of IKZF3 (Q16531 whole entry partner): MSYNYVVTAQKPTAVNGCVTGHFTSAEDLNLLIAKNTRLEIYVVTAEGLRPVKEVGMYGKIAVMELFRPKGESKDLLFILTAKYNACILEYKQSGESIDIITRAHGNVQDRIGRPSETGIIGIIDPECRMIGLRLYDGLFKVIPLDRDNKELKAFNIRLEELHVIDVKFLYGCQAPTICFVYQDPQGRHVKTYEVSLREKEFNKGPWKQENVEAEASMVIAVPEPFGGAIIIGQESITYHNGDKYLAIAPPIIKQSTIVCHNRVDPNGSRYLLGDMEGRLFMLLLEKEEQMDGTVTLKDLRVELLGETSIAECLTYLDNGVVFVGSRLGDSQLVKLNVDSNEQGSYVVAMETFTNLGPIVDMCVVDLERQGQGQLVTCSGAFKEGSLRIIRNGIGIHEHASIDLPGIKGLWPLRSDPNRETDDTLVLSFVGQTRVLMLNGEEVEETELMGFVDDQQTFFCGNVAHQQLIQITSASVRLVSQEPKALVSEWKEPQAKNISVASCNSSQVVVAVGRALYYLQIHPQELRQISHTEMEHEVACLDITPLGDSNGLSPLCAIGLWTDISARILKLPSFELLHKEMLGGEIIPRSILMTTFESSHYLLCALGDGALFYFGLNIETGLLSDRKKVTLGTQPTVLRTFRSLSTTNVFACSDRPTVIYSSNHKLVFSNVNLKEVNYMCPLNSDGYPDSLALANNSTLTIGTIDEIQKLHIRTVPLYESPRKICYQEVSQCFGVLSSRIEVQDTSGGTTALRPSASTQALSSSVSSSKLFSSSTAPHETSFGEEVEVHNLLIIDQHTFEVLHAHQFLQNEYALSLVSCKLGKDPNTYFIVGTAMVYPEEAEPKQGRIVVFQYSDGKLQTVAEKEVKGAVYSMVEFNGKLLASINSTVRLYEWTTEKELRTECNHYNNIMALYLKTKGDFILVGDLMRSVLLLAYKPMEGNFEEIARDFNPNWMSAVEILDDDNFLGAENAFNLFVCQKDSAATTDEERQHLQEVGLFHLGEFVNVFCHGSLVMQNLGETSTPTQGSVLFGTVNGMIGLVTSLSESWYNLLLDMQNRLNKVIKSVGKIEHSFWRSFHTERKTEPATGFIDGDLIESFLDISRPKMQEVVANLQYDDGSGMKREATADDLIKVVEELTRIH
Summary of the method: (§3)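 hPBMC, 1×10^6 cells/mL, 24 h compound exposure; RIPA lysis, BCA protein assay, SDS-PAGE, NC membrane immunoblot. Densitometry vs internal control → % protein remaining; degradation % = 100% − remaining; DC50 = conc. at 50% of DMSO band signal.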

GSPT1 = GSPT1 (Homo sapiens (Human), UniProt P15170+Q96SW2); assay: Western blot, substrate protein expression in hPBMC: GSPT1; assay type: cell-based; conditions: hPBMC, compound 500 nM, 24 hours, Western blot
Sequence of GSPT1 (P15170 whole entry): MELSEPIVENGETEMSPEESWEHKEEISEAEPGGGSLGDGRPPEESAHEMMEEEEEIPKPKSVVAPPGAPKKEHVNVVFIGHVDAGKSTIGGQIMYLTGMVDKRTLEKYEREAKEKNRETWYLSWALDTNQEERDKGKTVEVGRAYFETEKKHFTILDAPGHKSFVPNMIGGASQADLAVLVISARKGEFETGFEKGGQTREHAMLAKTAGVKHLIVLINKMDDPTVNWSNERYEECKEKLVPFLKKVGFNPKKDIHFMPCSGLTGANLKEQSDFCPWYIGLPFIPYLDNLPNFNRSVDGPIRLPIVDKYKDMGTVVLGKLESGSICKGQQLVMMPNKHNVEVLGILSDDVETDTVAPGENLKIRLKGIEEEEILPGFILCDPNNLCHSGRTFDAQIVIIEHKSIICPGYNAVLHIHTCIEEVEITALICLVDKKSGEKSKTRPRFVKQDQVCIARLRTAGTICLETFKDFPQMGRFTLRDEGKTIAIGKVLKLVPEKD
Sequence of GSPT1 (Q96SW2 whole entry): as the sequence (Q96SW2 whole entry) above
Sequence of GSPT1 (Q16531 whole entry partner): as the sequence (Q16531 whole entry partner) above
Summary of the method: as §3

[3] = system: TMD8 cells (human diffuse large B-cell lymphoma cells); assay: Tumor cell proliferation inhibition, CCK-8; assay type: cell-based; conditions: TMD8 cells, CCK-8, read-out: inhibitory activity (IC50, nM) TMD8
Description: as §1, §2

[4] = system: CAL-62 (human thyroid carcinoma cells); assay: Tumor cell proliferation inhibition, CCK-8; assay type: cell-based; conditions: CAL-62 cells, CCK-8, read-out: inhibitory activity (IC50, nM) CAL-62
Description: as §1, §2

[5] = system: MM.1S cells (human multiple myeloma cells); assay: Tumor cell proliferation inhibition, CCK-8; assay type: cell-based; conditions: MM1.S, MM.1S cells, CCK-8, read-out: inhibitory activity (IC50, nM) MM.1S
Description: as §1, §2

[6] = system: Jurkat cells (human T-cell leukemia cells); assay: Tumor cell proliferation inhibition, CCK-8; assay type: cell-based; conditions: Jurkat cells, CCK-8, read-out: inhibitory activity (IC50, nM) Jurkat
Description: as §1, §2

IKZF1 = IKZF1 (Homo sapiens (Human), UniProt Q13422+Q96SW2); assay: Western blot, substrate protein expression in hPBMC: IKZF1; assay type: cell-based; conditions: hPBMC, compound 500 nM, 24 hours, Western blot
Sequence of IKZF1 (Q13422 whole entry): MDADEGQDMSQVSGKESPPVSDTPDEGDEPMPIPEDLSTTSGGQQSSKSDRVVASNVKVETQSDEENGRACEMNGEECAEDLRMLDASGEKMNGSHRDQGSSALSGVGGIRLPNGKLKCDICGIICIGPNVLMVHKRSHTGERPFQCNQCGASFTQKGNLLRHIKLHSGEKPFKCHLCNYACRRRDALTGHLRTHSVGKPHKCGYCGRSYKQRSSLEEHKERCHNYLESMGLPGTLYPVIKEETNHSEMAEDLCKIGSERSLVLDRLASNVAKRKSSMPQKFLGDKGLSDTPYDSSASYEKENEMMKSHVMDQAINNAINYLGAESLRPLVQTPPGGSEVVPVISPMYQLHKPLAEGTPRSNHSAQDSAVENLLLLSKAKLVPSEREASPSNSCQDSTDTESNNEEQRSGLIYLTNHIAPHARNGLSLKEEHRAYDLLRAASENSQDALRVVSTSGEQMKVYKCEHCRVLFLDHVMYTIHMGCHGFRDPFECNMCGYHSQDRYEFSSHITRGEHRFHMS
Sequence of IKZF1 (Q96SW2 whole entry): as the sequence (Q96SW2 whole entry) above
Sequence of IKZF1 (Q16531 whole entry partner): as the sequence (Q16531 whole entry partner) above
Summary of the method: as §3

[7] = system: H146 cells (human small cell lung carcinoma cells); assay: Tumor cell proliferation inhibition, CCK-8; assay type: cell-based; conditions: NCI-H146, H146 cells, CCK-8, read-out: inhibitory activity (IC50, nM) H146
Description: as §1, §2

[8] = system: MDA-MB-231 cells (human breast adenocarcinoma cells); assay: Tumor cell proliferation inhibition, CCK-8; assay type: cell-based; conditions: MDA-MB-231 cells, CCK-8, read-out: inhibitory activity (IC50, nM) MDA-MB-231
Description: as §1, §2

| Structure (SMILES) | IC50 [1] [nM] | IC50 [2] [µM] | IC50 [3] [nM] | IC50 [4] [nM] | IC50 [5] [nM] | substrate protein remaining % IKZF3 (IKZF3) | substrate protein remaining % GSPT1 (GSPT1) | IC50 [6] [nM] | substrate protein remaining % IKZF1 (IKZF1) | IC50 [7] [nM] | IC50 [8] [nM] |
| --- | --- | --- | --- | --- | --- | --- | --- | --- | --- | --- | --- |
| O=C1CCC(N2Cc3cc(CN4C5CCC4CN(C(c4ccccc4)c4ccccc4)C5)cc(F)c3C2=O)C(=O)N1 (centres unmarked) [GT-03840, 3-(5-((3-benzhydryl-3,8-diazabicyclo[3.2.1]octan-8-yl)methyl)-7-fluoro-1-oxoisoindolin-2-yl)piperidine-2,6-dione] | 10 to 50 | 1 to 1.9 | – | – | – | – | – | – | – | – | – |
| O=C1CCC(N2Cc3cc(CN4CCN(C(c5ccccc5)c5ccncc5)CC4)ccc3C2=O)C(=O)N1 (centres unmarked) [GT-04205, 3-(1-oxo-5-((4-(phenyl(pyridin-4-yl)methyl)piperazin-1-yl)methyl)isoindolin-2-yl)piperidine-2,6-dione] | 50 to 100 | < 0.5 | 50 to 100 | 10 to 50 | 100 to 500 | A (A represents 0% ≤ substrate protein remaining % ≤ 50%) | A (A represents 0% ≤ substrate protein remaining % ≤ 50%) | 500 to 1000 | A (A represents 0% ≤ substrate protein remaining % ≤ 50%) | – | – |
| O=C1CCC(N2Cc3cc(CN4CCC(N(c5ccccc5)c5ccccc5)CC4)ccc3C2=O)C(=O)N1 (centres unmarked) [GT-04225, 3-(5-((4-(diphenylamino)piperidin-1-yl)methyl)-1-oxoisoindolin-2-yl)piperidine-2,6-dione] | < 1 | < 0.5 | 1 to 10 | < 1 | < 1 | A (A represents 0% ≤ substrate protein remaining % ≤ 50%) | A (A represents 0% ≤ substrate protein remaining % ≤ 50%) | < 1 | A (A represents 0% ≤ substrate protein remaining % ≤ 50%) | 1 to 10 | 1 to 10 |
| O=C1CCC(N2Cc3c(ccc(CN4CCC(N(c5ccccc5)c5ccccc5)CC4)c3F)C2=O)C(=O)N1 (centres unmarked) [GT-04226, 3-(5-((4-(diphenylamino)piperidin-1-yl)methyl)-4-fluoro-1-oxoisoindolin-2-yl)piperidine-2,6-dione] | < 1 | < 0.5 | 1 to 10 | < 1 | < 1 | A (A represents 0% ≤ substrate protein remaining % ≤ 50%) | A (A represents 0% ≤ substrate protein remaining % ≤ 50%) | < 1 | A (A represents 0% ≤ substrate protein remaining % ≤ 50%) | 1 to 10 | 1 to 10 |
| O=C1CCC(N2Cc3cc(CN4CCC(N(c5ccccc5)c5ccccc5)CC4)c(F)cc3C2=O)C(=O)N1 (centres unmarked) [GT-04227, 3-(5-((4-(diphenylamino)piperidin-1-yl)methyl)-6-fluoro-1-oxoisoindolin-2-yl)piperidine-2,6-dione] | < 1 | 0.5 to 1 | 1 to 10 | < 1 | < 1 | A (A represents 0% ≤ substrate protein remaining % ≤ 50%) | A (A represents 0% ≤ substrate protein remaining % ≤ 50%) | < 1 | A (A represents 0% ≤ substrate protein remaining % ≤ 50%) | 1 to 10 | 1 to 10 |
| O=C1CCC(N2Cc3c(ccc(CN4CCN(C(c5ccccc5)c5ccncc5)CC4)c3F)C2=O)C(=O)N1 (centres unmarked) [GT-04247, 3-(4-fluoro-1-oxo-5-((4-(phenyl(pyridin-4-yl)methyl)piperazin-1-yl)methyl)isoindolin-2-yl)piperidine-2,6-dione] | 50 to 100 | < 0.5 | – | 50 to 100 | 100 to 500 | A (A represents 0% ≤ substrate protein remaining % ≤ 50%) | A (A represents 0% ≤ substrate protein remaining % ≤ 50%) | – | A (A represents 0% ≤ substrate protein remaining % ≤ 50%) | – | – |

Second part, led by results:

| IC50 [1] [nM] | IC50 [2] [µM] | IC50 [3] [nM] | IC50 [4] [nM] | IC50 [5] [nM] | Structure (SMILES) | substrate protein remaining % IKZF3 (IKZF3) | substrate protein remaining % GSPT1 (GSPT1) | IC50 [6] [nM] | substrate protein remaining % IKZF1 (IKZF1) | IC50 [7] [nM] | IC50 [8] [nM] |
| --- | --- | --- | --- | --- | --- | --- | --- | --- | --- | --- | --- |
| 10 to 50 | 0.5 to 1 | – | 10 to 50 | 50 to 100 | O=C1CCC(N2Cc3cc(CN4CCN(C(c5ccccc5)c5ccncc5)CC4)c(F)cc3C2=O)C(=O)N1 (centres unmarked) [GT-04248, 3-(6-fluoro-1-oxo-5-((4-(phenyl(pyridin-4-yl)methyl)piperazin-1-yl)methyl)isoindolin-2-yl)piperidine-2,6-dione] | B (B represents substrate protein remaining % > 50%) | A (A represents 0% ≤ substrate protein remaining % ≤ 50%) | 50 to 100 | A (A represents 0% ≤ substrate protein remaining % ≤ 50%) | 100 to 500 | 100 to 500 |
| 10 to 50 | < 0.5 | 100 to 500 | 10 to 50 | 500 to 1000 | O=C1CCC(N2Cc3cc(CN4CCN(C(c5ccccc5)c5cccnc5)CC4)ccc3C2=O)C(=O)N1 (centres unmarked) [GT-04249, 3-(1-oxo-5-((4-(phenyl(pyridin-3-yl)methyl)piperazin-1-yl)methyl)isoindolin-2-yl)piperidine-2,6-dione] | A (A represents 0% ≤ substrate protein remaining % ≤ 50%) | A (A represents 0% ≤ substrate protein remaining % ≤ 50%) | – | A (A represents 0% ≤ substrate protein remaining % ≤ 50%) | – | – |
| 50 to 100 | < 0.5 | – | 50 to 100 | 100 to 500 | O=C1CCC(N2Cc3c(ccc(CN4CCN(C(c5ccccc5)c5cccnc5)CC4)c3F)C2=O)C(=O)N1 (centres unmarked) [GT-04250, 3-(4-fluoro-1-oxo-5-((4-(phenyl(pyridin-3-yl)methyl)piperazin-1-yl)methyl)isoindolin-2-yl)piperidine-2,6-dione] | A (A represents 0% ≤ substrate protein remaining % ≤ 50%) | A (A represents 0% ≤ substrate protein remaining % ≤ 50%) | – | A (A represents 0% ≤ substrate protein remaining % ≤ 50%) | – | – |
| 10 to 50 | < 0.5 | 100 to 500 | 10 to 50 | 10 to 50 | O=C1CCC(N2Cc3cc(CN4CCN(C(c5ccccc5)c5cccnc5)CC4)c(F)cc3C2=O)C(=O)N1 (centres unmarked) [GT-04251, 3-(6-fluoro-1-oxo-5-((4-(phenyl(pyridin-3-yl)methyl)piperazin-1-yl)methyl)isoindolin-2-yl)piperidine-2,6-dione] | A (A represents 0% ≤ substrate protein remaining % ≤ 50%) | A (A represents 0% ≤ substrate protein remaining % ≤ 50%) | 50 to 100 | A (A represents 0% ≤ substrate protein remaining % ≤ 50%) | 100 to 500 | 100 to 500 |
| – | 0.5 to 1 | 100 to 500 | – | 10 to 50 | O=C1CCC(N2Cc3cc(C(=O)N4CCN(C(c5cc(F)cc(F)c5)c5cc(F)cc(F)c5)CC4)ccc3C2=O)C(=O)N1 (centres unmarked) [GT-06597, 3-(5-(4-(bis(3,5-difluorophenyl)methyl)piperazine-1-carbonyl)-1-oxoisoindolin-2-yl)piperidine-2,6-dione] | A (A represents 0% ≤ substrate protein remaining % ≤ 50%) | A (A represents 0% ≤ substrate protein remaining % ≤ 50%) | – | A (A represents 0% ≤ substrate protein remaining % ≤ 50%) | 10 to 50 | 50 to 100 |
